Experimental data reported in patent publication US8795222B2, “Device and method for treatment of surface infections with nitric oxide” (Pulmonox Technologies Corp., priority 2000, dated 2014).

Experiments:
S. aureus = assay: gNO dose study, colony growth on agar plates; type: cell-based
Description: FIG. 6 depicts a S. aureus dosage curve for exposure to gaseous NO (gNO) with bacteria grown on solid media. Relative percentages of growth of S. aureus colony forming units (cfu) at 50, 80, 120 and 160 parts per million (ppm) of nitric oxide compared with growth of S. aureus cfu in medical air (100%) are shown.
To study the effects of gaseous nitric oxide on potential pathogens, a custom gas exposure incubator was designed and validated for temperature, humidity, and gas concentrations, providing an environment that matches that of a microbiologic incubator, while enabling controlled exposure of precise concentrations of the gas. […] The gNO chamber allowed control and adjustment of following factors in all in vitro studies: gNO dose, total air flow, NO2 levels, O2 levels, CO2 levels, temperature, and humidity. For the initial pilot studies, two strains of bacterial pathogen were selected based on two proposed clinical applications of gNO for respiratory infections and topical application. P. aeruginosa is associated primarily with pulmonary disease, but may also be associated with skin infection such as in severe burns. S. aureus is associated with surface wound infections. Both of these micro-organisms were chosen for the pilot study.
The first step in the process of evaluating the direct effect of gNO on bacteria was to design a simple study to determine what dose, if any, would be an approximate lethal concentration level for microbes. Once an optimal dose was estimated, then a timing study would be conducted. For these initial studies, highly dense inoculums of P. aeruginosa and S. aureus suspensions (10^8 cfu/ml) were plated onto agar plates. These plates were then exposed to various concentrations of gNO in the exposure device in order to evaluate the effect on colony growth.

Klebsiella sp. #1 = assay: Bacteriocidal time study, 200 ppm gNO, saline suspension; type: cell-based
Description: (§1) Following the dose and time ranging studies, a series of experiments were performed to determine the time required to effectively induce a bacteriocidal effect with 200 parts per million of gNO, a concentration just above the dose used in the dose-ranging study, on a representative collection of drug resistant gram-positive and gram-negative strains of bacteria associated with clinical infection. A successful bacteriocidal effect was defined as a decrease in bacteria greater than 3 log10 cfu/ml. Further, C. albicans, Methicillin Resistant S. aureus (MRSA), a particularly resistant strain of P. aeruginosa from a cystic fibrosis patient, Group B Streptococcus, and M. smegmatis were also included to see if yeast, multi-drug resistant strains of bacteria, and actinomycetes have a similar response. The drug-resistant bacteria represent a variety of pathogens that contribute to both respiratory and wound infections.
(§2) For these experiments, saline was selected as a suspension media because it would not mask the direct effect of gNO as a bacteriocidal, whereas fully supplemented growth medium might introduce external variables (e.g., buffer or react with gNO). Other media might also provide metabolites and replenish nutrients that produce enzymes that protect bacteria from oxidative and nitrosative damage, thereby masking the effect of gNO. […] In saline, the colonies were static but remained viable. This is similar to the approach of Webert and Jean's use of animal models. Webert K E, et al (2000), Effects of inhaled nitric oxide in a rat model of Pseudomonas aeruginosa pneumonia, Crit. Care Med, 28(7):2397-2405 and Jean D, et al., (2002) Beneficial effects of nitric oxide inhalation on pulmonary bacterial clearance, Critical Care Medicine. 30(2):442-7.
(§3) The latent period was then followed by an abrupt death of all cells. Gram negative and gram positive bacteria, antibiotic resistant bacterial strains, yeast and mycobacteria were all susceptible to 200 ppm gNO. Of importance, is the observation that the two drug resistant bacteria strains were also susceptible.

S. aureus (Clinical) = assay: as above; type: cell-based
Description: as §1, §2, §3

Mycobacterium = assay: as above; type: cell-based, M. smegmatis
Description: as §1, §2
as §3, with “susceptible. […]” for “susceptible.”

collagenase mRNA = assay: mRNA expression after gNO exposure; type: cell-based; settings: 200 ppm gNO; 24 hours and 48 hours
Text: Witte M B, et al, (2002) Nitric oxide enhances […] wound healing in diabetes, Br J. Surg., 89:1594-601. Thus, Applicants believe that NO may upregulate expression of both collagenase (MMP-1) and gelatinase (MMP-2), which may be important in keeping the wound clean from necrotic tissue while not prolonging the inflammatory phase.

collagen mRNA = assay: mRNA expression after gNO exposure; type: cell-based
Text: Rather than applying exogenous collagenase for enzymatic debridement of necrotic tissue, exposing a wound with necrotic tissue to exogenous NO gas to upregulate endogenous collagenase may be more beneficial. When endogenous collagenase is released by the cell, it automatically releases TIMP's (tissue inhibitor of metalloproteinase). This ensures that the matrix degradation is coordinated and allows the establishment of sharp geographical boundaries of collagenolytic activity and the protection of areas of connective tissue from the activity of the enzyme. In contrast, use of exogenous collagenase material to debride a wound confers no protection to specific areas of the wound as it is active on every cell that comes in contact with it whether or not the effect is desired.
Preferably, after the exposure of the wound to high concentration of nitric oxide gas for a first treatment period (e.g., 5-8 hours per day), the necrotic tissue may be mechanically removed easily and the concentration of nitric oxide gas can be decreased for a second treatment period. The low concentration of nitric oxide gas (e.g., at 5-20 ppm) delivered for the second treatment period may upregulate the expression of collagen mRNA leading to synthesis of new collagen to aid in the closure of the wound. […] The second treatment period may be for a period 7-16 hours per day. […]

[1] = test system: fibroblasts grown in a 3D matrix; assay: Fibroblasts grown in a 3D matrix, migration and proliferation; type: cell-based; settings: 200 ppm NO for 8 hours per day for 3 days; compared with air or conventional incubator

## [N]=O [gNO, nitric oxide]
S. aureus; 24 hours after gNO exposure, controls overgrew
  colony size and number after transfer to a conventional incubator: remained the same in size and number
S. aureus; gNO greater than 120 ppm, agar plates
  time required to achieve the >90% reduction of colony formation: 8 to 12 h
S. aureus; gNO greater than 120 ppm, agar plates, compared with medical air
  reduction of colony formation: greater than 90%
S. aureus; increasing gNO to 120 ppm, agar plates
  survival: 5-10%
Klebsiella sp. #1
  LD100: 6 h
  Latent Period*: 3 h
Klebsiella sp. #1; time to −2.5 log10 cfu/ml
  −2.5 Log10: 3.5 hrs
S. aureus (Clinical)
  LD100: 4 h
  Latent Period*: 3 h
S. aureus (Clinical); time to −2.5 log10 cfu/ml
  −2.5 Log10: 3.7 hrs
Mycobacterium
  LD100: 10 h
  Latent Period*: 7 h
Mycobacterium; time to −2.5 log10 cfu/ml
  −2.5 Log10: 9.2 hrs
Collagenase mRNA
  expression of collagenase mRNA: increased
Collagen mRNA; fibroblast exposed to 5 ppm of NO
  collagen mRNA expression: increased collagen mRNA expression
Collagen mRNA; high concentration, 200 ppm gNO, 24 hours and 48 hours
  collagen expression: possible inhibition of collagen expression
[1]
  migration of fibroblasts: does not appear to affect
  proliferation of fibroblasts: does not appear to interfere
